Assay results: US20220167645A1, “METHODS OF IMPROVING FISH FEED CONVERSION RATE AND SURVIVAL” (AQUINOVO LTD., priority 2019, published 2022)
Values joined by “and” are separate entries in the source; they are usually repeats but may differ in a detail not shown here. Equal entries are not always repeated. Numbered stars: 1 amine (or outer) side, 2 acyl side, 3 side chain; on linkers, the order of the positions; unused ones are H or OH. Square brackets hold non-standard residues; d marks the D form. Suc = O=C(CCC(=O)[*:2])[*:1]; NMeV = CN[C@H](C(=O)O)C(C)C; βAla = NCCC(=O)O

Experiments:
Tilapia fish [1] = assay: Experiment #1: tilapia fed AN6-coated feed in two phases (growth, biomass, mortality, FCR); type: in vivo
Protocol: MeM (powder, manufactured by Bern Aqua), Nanolis P1, P2 (pellet sizes of 0.8-1 mm, 1-1.5 mm, respectively, manufactured by Ocialis) and Tilaphi 1, 2 & 3 (pellet sizes of 1-1.5 mm, 2 mm, 3-5.5 mm, respectively, manufactured by Ocialis) were used as basic regular feed. The basic feed was coated according to the following general procedure: 9 ml or 3 ml of Tris-HCl solution (50 mM, pH=8.8) were diluted to 60 ml with distilled H2O. For AN6-containing feed preparation, desired amounts of AN6 peptide (a TK antagonist having the sequence Succ-Asp-Ser-D-Trp—N(Me)Val-βAla-Leu-Met-NH2, SEQ ID NO. 6) were dissolved in the Tris-HCl solution. Then, each of the various solutions was mixed with 3 Kg of basic feed pellets using an electric mixer. The peptide-feed mixtures where then dried either in oven at 40° C. for 24 hours or in drying drum for few hours to form coated pellets. The total amount of each feed was 3 Kg.
Tilapia fish (n=3600) have been raised from age 10 to 106 days post-hatch (dph) in indoor tanks kept under artificial lightening (12 h light; 12 h dark), and then transferred to cages in ponds for 160 days (total 8-9 months). The fish were fed to apparent satiation 2-4 times a day, for about 90 days (10-106 dph, Phase 1), either with regular feed (Feed A, Group A, n=600 in 3 repeats) or with feed coated with AN6 peptide solution in a ratio of 10 mg AN6/Kg feed (10 ppm, Feed C, Group B, n=600 in 3 repeats). In the second phase, fish in group B were fed for 50 days (207-257 dph, Phase 2) with feed coated with AN6 peptide solution, in a ratio of 30 mg AN6/Kg feed (30 ppm, Feed D, Group B). Between days 107 and 206 the fish received control feed (feed A).
During the experiment period, the average fish weight was measured, and the daily growth rate was calculated by dividing the average weight gained in each measuring period by the number of days since the last measurement. […] This effect was also evident in the daily growth rate (FIG. 1, experiment #1). The relatively low growth rate measured in the initial phase of this experiment probably stemmed from high stocking density in tanks system in the initial period (Phase 1, Table 2, until day 106 post-hatch). This growth restriction was fully compensated in the larger cages in ponds (178 dph) where stocking density was much lower (from 106 dph, <10 Kg fish/m3).
During the experiments described above, dead fish were removed from tanks before each feeding, and then counted and weighed. Dead fish were not replaced after the beginning of the experiment. In the cage systems, in which dead fish are undetectable, actual mortality was estimated by the difference between initial and final count.
During the experiment described in example 2 (experiment #1), the fish were exposed to high stocking densities in indoor tanks (13-130 kg/m^3, 83-106 dph, Table 2, FIG. 7). High stocking density is known as a major fish stressor resulting, inter alia, in chronic increase in Cortisol levels, reduced growth, changes in behavior and inhibition of immune performance. Although mortality in these tanks was not high, a significant increase in mortality was observed following fish transfer to the pond (FIG. 7, 17.5%±2.4 mortality, x±SE).
In order to determine the efficiency of feed conversion into fish substance in experiments (#1, #2, #3), FCR values which reflect the amount of feed needed to grow a kilogram fish, were calculated for each period and for the entire fish growth period. In order to determine the amount of consumed feed, the amount of feed provided was measured daily for each tank and the leftovers were collected, weighted and subtracted from the total amount of feed. Dead fish were removed every day before each feeding and then counted and weighed for accurate calculation of feed intake and FCR. […]

[2] = AN6 half-life in blood and residual peptide in muscle and plasma; conditions: in vivo
Tilapia fish [3] = assay: Feed conversion rate (FCR) calculated over experiments #1, #2, #3; type: in vivo
Protocol: In order to determine the efficiency of feed conversion into fish substance in experiments (#1, #2, #3), FCR values which reflect the amount of feed needed to grow a kilogram fish, were calculated for each period and for the entire fish growth period. In order to determine the amount of consumed feed, the amount of feed provided was measured daily for each tank and the leftovers were collected, weighted and subtracted from the total amount of feed. Dead fish were removed every day before each feeding and then counted and weighed for accurate calculation of feed intake and FCR. It is to be noted that high mortality can still influence FCR values since feed eaten by fish that have later died cannot be subtracted from the total feed consumed and on the other hand periodic total fish weight gained is underestimated (dead fish are not included). Three FCR values were calculated according to the following formulas:
Specifically, improved FCR is observed 30 to 90 days after treatment initiation and can last at least 100 days after treatment stopped.

Tilapia fish [4] = assay: Experiment #3: tilapia fed AN6-coated feed, treatment schedules 1 to 8 (survival, weight, length, size distribution, FCR); type: in vivo; conditions: 10 mg AN6/Kg feed from 10 dph for 90 days; D279; compared to control
[5] = test system: TK receptors (tac1, tac2, tac3); assay: TK receptor mRNA expression following AN6 treatment; type: in vivo; conditions: different parts of the gut and skin
Tilapia fish [6] = type: in vivo
Excerpt: At the end of each of the experiments described in examples 2, 3 and 5 (#1, #2, #3), a sample of fish from each treatment group was sacrificed and dissected for measurements of internal parts as indicated in Table 9.

[7] = 10 mg AN6/Kg feed 10-106 dph, first 200 days of experiment, vs control
[8] = 10 ppm AN6, experiments 2 & 3, vs control

## Succ-Asp-Ser- D-Trp -N(Me)Val-βAla-Leu-Met-NH2 (Suc-DS[dW][NMeV][βAla]LM-NH2; SMILES CSCC[C@H](NC(=O)[C@H](CC(C)C)NC(=O)CCNC(=O)[C@H](C(C)C)N(C)C(=O)[C@@H](Cc1c[nH]c2ccccc12)NC(=O)[C@H](CO)NC(=O)[C@H](CC(=O)O)NC(=O)CCC(=O)O)C(N)=O) [AN6]
Tilapia fish [1]; [7]
  daily growth rate: no differences
  fish average weight: no differences
Tilapia fish [1]; 10 and 30 mg AN6/Kg feed (experiment #1)
  FCR and growth performance: both improved FCR and growth performance
Tilapia fish [1]; AN6 treatment group (control 6%)
  number of fish in the upper 6.5th decile: 12%
Tilapia fish [1]; AN6 treatment group (control 9%)
  number of fish in the lower 2th decile: 7%
Tilapia fish [1]; after high stocking density in tanks, control 17.5%±2.4, FIG. 7
  mortality following fish transfer to the pond (x±SE): 10.5%±1.8
Tilapia fish [1]; experiment #1, FIG. 3A, vs control
  increased total biomass: +18%
Tilapia fish [1]; in the pond, FIG. 7
  reduction of fish mortality as compared to the control groups: 8.5%
Tilapia fish [1]; second phase of the experiment (FIG. 2A)
  weight gained normalized according to the initial body weight, difference compared to the control group: 6% and 9%
[2]
  cleared from blood: ~4.5 min
  half-life time in blood: very short
  peptide residual in muscle and blood after treatment: no peptide residual is detected
  residual peptide in muscle and plasma following treatment: non residual peptide was observed
Tilapia fish [3]; 5, 10 mg and 30 mg AN6/Kg feed in other cases (experiments #2 and #3), with decrease in feed intake
  FCR-growth relationship: improved FCR which did not coincide with improved growth
Tilapia fish [3]; all AN6 peptide treatments, FIGS. 5A, 5B, 10, 11, 12
  FCR in adult fish: significantly improves FCR
Tilapia fish [3]; in vivo
  duration of improved FCR after treatment stopped: at least 100 days
Tilapia fish [4]
  increase in average fish weight: +3.89%
[5]
  expression of all TK receptors (tac1, tac2, tac3): altered
Tilapia fish [6]; [8]
  female fillet ratio: +3.38%
  male fillet ratio: +5.6%
Tilapia fish [6]; in vivo
  gonad size and histology: No significant effect
  kidney, liver and fat weight and rates: no effect
